For the assay, the target named is T1, OGA (Mus musculus, UniProt Q9EQQ9).
T1 construct: from tissue; host or cells: mouse brain (right hemisphere sagittal sections, forebrain area)
T1 sequence (Q9EQQ9 1-916): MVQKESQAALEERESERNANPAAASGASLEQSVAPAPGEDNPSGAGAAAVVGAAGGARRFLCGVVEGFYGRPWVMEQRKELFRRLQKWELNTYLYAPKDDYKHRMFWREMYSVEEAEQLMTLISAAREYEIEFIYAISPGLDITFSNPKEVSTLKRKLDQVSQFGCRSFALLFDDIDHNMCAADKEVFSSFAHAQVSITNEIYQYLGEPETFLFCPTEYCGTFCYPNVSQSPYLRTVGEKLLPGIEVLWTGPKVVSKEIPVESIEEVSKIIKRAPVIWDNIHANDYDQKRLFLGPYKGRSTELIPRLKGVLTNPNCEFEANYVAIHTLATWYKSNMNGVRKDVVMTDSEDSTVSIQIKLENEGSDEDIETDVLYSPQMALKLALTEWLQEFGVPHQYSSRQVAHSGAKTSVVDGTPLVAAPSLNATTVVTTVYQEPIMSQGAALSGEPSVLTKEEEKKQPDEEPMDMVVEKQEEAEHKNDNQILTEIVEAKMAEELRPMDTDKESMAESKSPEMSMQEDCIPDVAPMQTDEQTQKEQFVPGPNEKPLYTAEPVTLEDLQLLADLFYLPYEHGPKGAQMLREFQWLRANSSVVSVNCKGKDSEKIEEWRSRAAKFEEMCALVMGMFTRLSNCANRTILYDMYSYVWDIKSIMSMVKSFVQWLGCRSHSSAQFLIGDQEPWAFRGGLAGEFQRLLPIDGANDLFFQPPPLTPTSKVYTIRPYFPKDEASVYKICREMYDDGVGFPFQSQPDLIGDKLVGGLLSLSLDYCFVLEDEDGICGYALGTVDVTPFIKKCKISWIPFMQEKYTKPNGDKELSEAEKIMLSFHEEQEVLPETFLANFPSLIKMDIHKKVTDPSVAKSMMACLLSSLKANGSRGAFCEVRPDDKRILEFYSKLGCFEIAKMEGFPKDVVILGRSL
The assay is described as follows: Ex vivo OGA occupancy assay using [3H]-ligand. The assay is classed as in vivo. The following applies: po, male NMRI or C57Bl6j mice, p.o., 24 h after administration, forebrain area of brain sections, 3 nM [3H]-ligand, normalised to vehicle, read-out: Occupancy (% +/- sd). The procedure: Ex Vivo Oga Occupancy Assay Using [^3H]-Ligand
Drug Treatment and Tissue Preparation
Male NMRI or C57Bl6j mice were treated by oral (p.o.) administration of vehicle or compound. Animals were sacrificed 24 hours after administration. Brains were immediately removed from the skull, hemispheres were separated and the right hemisphere, for ex vivo OGA occupancy assay, was rapidly frozen in dry-ice cooled 2-methylbutane (−40° C.). […] sagittal sections were cut using a Leica CM 3050 cryostat-microtome (Leica, Belgium), thaw-mounted on microscope slides (SuperFrost Plus Slides, Thermo Fisher Scientific) and stored at −20° C. until use. After thawing, sections were dried under a cold stream of air. The sections were not washed prior to incubation. The 10 minutes incubation with 3 nM [^3H]-ligand was rigorously controlled. All brain sections (from compound-treated and vehicle-treated animals) were incubated in parallel. […]
Quantitative autoradiography and data analysis Radioactivity in the forebrain area of brain slices was measured using a β-imager with M3 vision analysis software (Biospace Lab, Paris). Specific binding was calculated as the difference between total binding and non-specific binding measured in Thiamet-G (10 μM) treated sections. […]

For `Cc1cc(OC[C@H]2CCCN(C(C)c3nc4c(cc3F)OCCO4)C2)cc(C)n1` (single isomer, unassigned) [Product 155], the receptor occupancy at 25 mg/kg came out at 92.7%. For `Cc1cc([C@H]2CCCN(C(C)c3cnc4c(c3)OCCN4)C2)cc(C)n1` (single isomer, unassigned) [Product 135] the value was 20.7%.

Source of the values: US20210300943A1, “OGA INHIBITOR COMPOUNDS” (Janssen Pharmaceutica NV, priority 2018, published 2021).
